Results as given in ChEMBL document CHEMBL1201862, “PubChem BioAssay data set” (2004).
Activity calls are given as the source filed them.

What was measured:
[1] = insulin promoter down-regulators in MIN6 cells, imaging, high-content screening, mouse beta cells (AID 1628); format: functional
[2] = cytotoxicity in MIN6 insulinoma cells, dose response, cytotoxicity control, cell-based, mouse insulinoma (AID 2122); format: functional;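 further: confirmatory high-throughput counterscreen run to flag cytotoxic compounds; mouse MIN-6 beta cells carrying an insulin promoter eGFP reporter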
Jurkat = assay: antigen receptor-induced NF-kB inhibitors, dose response, Jurkat, luciferase reporter, luminescence, B- and T-cell (AID 489004); format: functional, cell-based; conditions: Homo sapiens;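 further: NF-kB luciferase reporter Jurkat cells stimulated with PMA plus ionomycin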
[3] = cytotoxicity in HEK-293T NF-kB-Luc cells, dose response, cytotoxicity control for B/T-cell NF-kB inhibitor project, cell-based, uHTS hits (AID 489019); format: functional;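 further: IC50 reflects cytotoxicity as loss of cell viability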
INS1 = assay: beta cell apoptosis inhibitors, cytokine rescue, dose response, luminescence, retest (AID 449756); format: functional, cell-based; conditions: Rattus norvegicus;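 further: cell death triggered by IL-1 beta plus TNF-alpha plus IFN-gamma mixture; protective hits raise ATP signal compared with cytokine alone wells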
[4] = Shn3 3'UTR reporter inhibitors, dose response, cell-based, Clone20 osteoblasts, firefly luciferase, cherry-picked (AID 624132); format: functional;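 further: firefly luciferase luminescence from reporter carrying the Shn3 3'UTR in osteoblasts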
[5] = HepG2 cell cytotoxicity, dose response, cytotoxicity control for Shn3 inhibitor project, CellTiter-Glo, cherry-picked (AID 624134); format: functional, cell-based
[6] = control 3'UTR Renilla luciferase suppression, dose response, counter-screen for Shn3 inhibitor project, cell-based, Clone20-Shn3RL, cherry-picked (AID 624133); format: functional
[7] = target: COUP transcription factor 2 (Homo sapiens, UniProt P24468); assay: Luminescence-based cell-based high throughput dose response assay to identify inhibitors of COUP-TFII (NR2F2).; format: functional;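 further: HEK293 cells transiently cotransfected with COUP-TFII expression vector and reporter; luciferase reporter luminescence driven by COUP-TFII from the pX2-168 reporter plasmid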
[8] = reduction of Shn3 3'UTR firefly luciferase signal, dose response, Schnurri-3 inhibitor project, cell-based, Clone20 osteoblasts, cherry-pick, set 2 (AID 720490); format: functional;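 further: actives lower the luminescence signal as inhibitors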
[9] = NIH-3T3 fibroblast cytotoxicity, dose response, cytotoxicity control, cell-based, fluorescence, Alamar Blue, secondary assay (AID 2327); format: functional;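 further: NIH-3T3 mouse fibroblasts cultured with fluconazole at 8 µg/mL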
[10] = C. albicans growth with fluconazole, confirmation, fluorescence, retest (AID 2467); format: functional, cell-based
[11] = target: T1, Serine/threonine-protein phosphatase (Candida dubliniensis (strain CD36 / CBS 7987 / NCPF 3949 / NRRLY-17841) (Yeast), UniProt B9W6M3); assay: calcineurin pathway inhibitors in yeast reporter, dose response, S. cerevisiae, CDRE-lacZ, luminescence, secondary (AID 2388); format: functional, cell-based;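 further: yeast reporter cells carrying a calcineurin-responsive lacZ construct stimulated with calcium chloride; luminescent beta-galactosidase reporter signal in whole cells rather than isolated phosphatase activity; potency for inhibition where a drop in reporter signal means calcineurin blockade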
T1 sequence (B9W6M3 whole entry): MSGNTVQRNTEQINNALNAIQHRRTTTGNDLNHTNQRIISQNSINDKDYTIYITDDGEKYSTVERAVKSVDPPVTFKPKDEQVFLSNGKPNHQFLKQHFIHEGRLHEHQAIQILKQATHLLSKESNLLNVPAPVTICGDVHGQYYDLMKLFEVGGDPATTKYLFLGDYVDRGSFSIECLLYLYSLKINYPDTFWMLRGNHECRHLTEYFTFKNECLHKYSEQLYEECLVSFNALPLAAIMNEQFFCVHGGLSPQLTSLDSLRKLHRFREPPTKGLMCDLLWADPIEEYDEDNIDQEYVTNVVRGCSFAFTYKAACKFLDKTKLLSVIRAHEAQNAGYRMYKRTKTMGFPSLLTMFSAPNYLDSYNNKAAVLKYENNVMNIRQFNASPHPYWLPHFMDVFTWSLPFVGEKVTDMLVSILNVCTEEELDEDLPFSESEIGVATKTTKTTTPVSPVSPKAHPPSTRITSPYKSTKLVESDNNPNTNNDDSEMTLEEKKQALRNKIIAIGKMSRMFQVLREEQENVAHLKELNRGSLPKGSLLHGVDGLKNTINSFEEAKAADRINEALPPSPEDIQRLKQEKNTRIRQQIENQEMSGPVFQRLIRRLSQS

[12] = target: T1, Serine/threonine-protein phosphatase; assay: Fluorescence Cell-Based Secondary Assay to Identify Inhibitors of Calcineurin. [Related pubchem assays (depositor defined):AID1979, AID2007]; format: functional
[13] = target: ATP-dependent molecular chaperone HSP82 (Candida albicans (strain WO-1) (Yeast), UniProt C4YTQ8); assay: loss of DOC-induced GRE-beta-galactosidase reporter signal, dose response, Hsp90 inhibitor project, S. cerevisiae, luminescence (AID 2400); format: functional, cell-based;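 further: beta-galactosidase luminescence from glucocorticoid response element reporter as proxy for Hsp90 function; inhibitor potency where signal loss means Hsp90 inhibition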
ATP-dependent molecular chaperone HSP82, sequence (C4YTQ8 whole entry): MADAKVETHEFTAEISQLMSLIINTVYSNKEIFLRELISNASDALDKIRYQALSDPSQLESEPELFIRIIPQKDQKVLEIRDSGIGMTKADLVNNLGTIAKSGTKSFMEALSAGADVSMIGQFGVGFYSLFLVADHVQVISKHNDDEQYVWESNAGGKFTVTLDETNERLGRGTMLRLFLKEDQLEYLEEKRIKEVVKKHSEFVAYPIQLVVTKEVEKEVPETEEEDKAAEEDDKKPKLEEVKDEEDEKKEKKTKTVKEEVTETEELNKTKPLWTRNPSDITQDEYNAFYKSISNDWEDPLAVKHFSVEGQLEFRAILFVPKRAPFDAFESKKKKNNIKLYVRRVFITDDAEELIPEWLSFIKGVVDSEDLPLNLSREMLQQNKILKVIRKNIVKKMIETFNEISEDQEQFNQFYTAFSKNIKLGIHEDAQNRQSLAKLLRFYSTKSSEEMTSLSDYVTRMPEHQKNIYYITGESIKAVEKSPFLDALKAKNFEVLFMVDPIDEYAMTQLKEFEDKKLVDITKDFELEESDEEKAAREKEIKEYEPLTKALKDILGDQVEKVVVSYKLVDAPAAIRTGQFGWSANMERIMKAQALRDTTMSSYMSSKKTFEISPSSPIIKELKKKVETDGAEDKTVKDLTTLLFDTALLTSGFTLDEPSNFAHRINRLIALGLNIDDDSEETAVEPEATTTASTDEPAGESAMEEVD

COUP transcription factor 2, sequence (P24468 whole entry): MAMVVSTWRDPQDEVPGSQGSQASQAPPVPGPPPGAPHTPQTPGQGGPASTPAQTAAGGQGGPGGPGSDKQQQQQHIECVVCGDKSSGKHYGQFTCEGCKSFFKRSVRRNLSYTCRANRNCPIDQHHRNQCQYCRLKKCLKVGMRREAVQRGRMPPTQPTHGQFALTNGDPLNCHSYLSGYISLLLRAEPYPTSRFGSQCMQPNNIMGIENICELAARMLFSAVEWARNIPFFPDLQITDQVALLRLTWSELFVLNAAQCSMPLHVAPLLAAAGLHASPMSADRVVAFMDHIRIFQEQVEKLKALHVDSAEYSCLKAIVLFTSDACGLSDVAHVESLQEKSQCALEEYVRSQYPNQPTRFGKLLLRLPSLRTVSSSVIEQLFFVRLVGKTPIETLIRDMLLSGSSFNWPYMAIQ

Structure (SMILES)	IC50 [1]	IC50 [2]	IC50 (Jurkat)	IC50 [3]	AC50 (INS1)	AC50 [4]	AC50 [5]	AC50 [6]	IC50 [7]	AC50 [8]	EC50 [9]	EC50 [10]	EC50 [11]	EC50 [12]	EC50 [13]
Cn1nc(CC(=O)Nc2ccc3c(c2)OCCO3)c2ccccc2c1=O	0.797 µM (active)	0.552 µM (active)	> 80 µM (inactive)	> 80 µM (inactive)	2.77 µM (active)	0.899 µM (active)	55.8 µM (active)	3.62 µM (active)	6.56 µM (active)	1.36 µM (active)	–	–	–	–	–
COc1ccc(-n2nc(C(=O)NCC(=O)N3CCN(c4ccccc4)CC3)c3ccccc3c2=O)c(OC)c1	–	–	–	–	–	–	–	–	–	–	> 160 µM (inactive)	0.819 µM (active)	> 180 µM (inactive)	> 285 µM (inactive)	> 160 µM (inactive)
